Broadly, the IC50 is the midpoint of a concentration-inhibition curve. High values mean lower potency, low ones higher potency.

Results on nine molecules are retold here after US20210115047A1, “CDPK1 INHIBITORS, COMPOSITIONS AND METHODS RELATED THERETO” (Vyera Pharmaceutical, LLC, priority 2017, published 2021).

This experiment concerns the target T1, T. gondii CDPK1 (tgCDPK1) (Toxoplasma gondii, UniProt Q9BJF5).
T1 sequence (Q9BJF5 1-507): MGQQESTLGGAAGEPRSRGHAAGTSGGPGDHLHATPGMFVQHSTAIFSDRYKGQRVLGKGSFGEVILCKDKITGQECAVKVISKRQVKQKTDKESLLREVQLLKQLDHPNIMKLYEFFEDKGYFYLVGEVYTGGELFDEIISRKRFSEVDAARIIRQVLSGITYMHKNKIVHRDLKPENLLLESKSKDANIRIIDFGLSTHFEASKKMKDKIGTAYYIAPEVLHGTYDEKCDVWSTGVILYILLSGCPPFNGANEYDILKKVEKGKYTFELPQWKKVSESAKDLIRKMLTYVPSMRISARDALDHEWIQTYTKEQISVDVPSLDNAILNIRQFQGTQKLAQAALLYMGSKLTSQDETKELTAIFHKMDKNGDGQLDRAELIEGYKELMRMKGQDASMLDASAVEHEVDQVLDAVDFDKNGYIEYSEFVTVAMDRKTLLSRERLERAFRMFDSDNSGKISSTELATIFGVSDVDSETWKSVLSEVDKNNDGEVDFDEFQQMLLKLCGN
Briefly: Inhibition of T. gondii CDPK1 (tgCDPK1), IC50 determination. The following applies: at least three independent replicates per compound. It counts as biochemical. On the procedure: Certain of the compounds prepared as described above were assayed to determine their IC50 for inhibition of T. gondii CDPK1 (tgCDPK1). At least three independent replicates of the assay were conducted for each compound tested.
The molecule `Nc1ncnc2c1c(Cc1cc(F)cc(Cl)c1)nn2C1CC1` [Compound 4, 3-(3-chloro-5-fluorobenzyl)-1-cyclopropyl-1H-pyrazolo[3,4-d]pyrimidin-4-amine] gave an IC50 of 91.7 nM. The figure for `Nc1ncnc2c1c(Cc1cccc(F)c1)nn2C1CC1` [Compound 5, 1-cyclopropyl-3-(3-fluorobenzyl)-1H-pyrazolo[3,4-d]pyrimidin-4-amine] is 25.3 nM; for `Nc1ncnc2c1c(Cc1cccc(Cl)c1)nn2C1CCC1` [Compound 6, 3-(3-chlorobenzyl)-1-cyclobutyl-1H-pyrazolo[3,4-d]pyrimidin-4-amine] it is 8.7 nM; for `Nc1ncnc2c1c(Cc1cccc(-c3ccccc3)c1)nn2C1CC1` [Compound 9, 3-([1,1′-biphenyl]-3-ylmethyl)-1-cyclopropyl-1H-pyrazolo[3,4-d]pyrimidin-4-amine] it is 26.3 nM. Molecule `Nc1ncnc2c1c(Cc1cccc(-c3cncnc3)c1)nn2C1CC1` [Compound 10, 1-cyclopropyl-3-(3-(pyrimidin-5-yl)benzyl)-1H-pyrazolo[3,4-d]pyrimidin-4-amine] showed an IC50 of 373 nM. The same measure for `Nc1ncnc2c1c(Cc1cccc(-c3ccncc3)c1)nn2C1CC1` [Compound 11, 1-cyclopropyl-3-(3-(pyridin-4-yl)benzyl)-1H-pyrazolo[3,4-d]pyrimidin-4-amine]: 1170 nM.

In turn, `Nc1ncnc2c1c(C(O)c1ccccc1)nn2C1CC1` (stereo not drawn) [Compound 16, (4-amino-1-cyclopropyl-1H-pyrazolo[3,4-d]pyrimidin-3-yl)(phenyl)methanol] registered an IC50 of 1750 nM. Regarding `Nc1ncnc2c1c(Cc1ccccc1)nn2C1CC1` [Compound 17, 3-benzyl-1-cyclopropyl-1H-pyrazolo[3,4-d]pyrimidin-4-amine], inhibition was half-maximal at 25.4 nM (IC50). The same measure for `Nc1ncnc2c1c(C(O)c1cccnc1)nn2C1CC1` (stereo not drawn) [Compound 18, (4-amino-1-cyclopropyl-1H-pyrazolo[3,4-d]pyrimidin-3-yl)(pyridin-3-yl)methanol]: 4870 nM.
